Entries after “also recorded” stand apart in the source; their conditions may differ.
Key:
HIV-1 [1] = test: HIV-1 replication in human PBLs monitored by p24 ELISA; format: cell-based
Description: (E) Replication kinetics of wild-type HIV-1 in human PBLs is enhanced by Pin1 isomerase inhibitors. 2×10^6 PBLs from patient donors were challenged with HIV-1 in the presence (lighter squares, top) or absence (black circles, bottom) of 10 μM PiB, which was added again at day 3 to maintain drug pressure. Replication was monitored by sampling virus concentration in supernatants via p24 ELISA.
Cell Lines and PBMCs: The TZM-bl cell line was obtained through the NIH AIDS Research and Reference Reagent Program, Division of AIDS, NIAID, NIH: TZM-bl from Dr. John C. Kappes, Dr. Xiaoyun Wu and Tranzyme Inc. The sMAGI cell line was obtained through the AIDS Research and Reference Reagent Program, Division of AIDS, NIAID, NIH: CMMT-CD4-LTR-β-Gal (sMAGI) from Dr. Julie Overbaugh. African green kidney BS-C-1 CCL-26, African green kidney CV-1 CCL-70, African green kidney Vero CCL-81, owl kidney OMK(637-69) CRL-1556 and 293T cell lines were obtained from ATCC. To generate PBMCs, human blood from normal healthy donors (General Clinical Research Center, TSR1) was fractionated via gradient centrifugation through histopaque-1077 (Sigma-Aldrich). Peripheral blood lymphocytes (PBLs) were cultured in RPMI supplemented with 20% FBS, 20 U ml^−1 IL-2.
Infection assays for retrovirus: Single-round infections: CD4^+ TZM-bl 100,000 cells/well/mL were seeded onto 24-well plates 24 hours prior to infection. These cells were infected in quadruplicate to 24-well plates. Infectivity was scored using an enzymatic galactosidase activity assay. Specifically, infected TZM-bl cells were washed and lysed, and 20 μl of lysate was transferred to a 96-well plate for detecting β-galactosidase activity. 100 μl of reaction buffer Galacton-Star substrate (Applied Biosystems, Bedford, Mass.), diluted 1:50, was added to 20 μl of lysate, and the light emission was measured over 1 second in a microplate luminometer after 30 minutes incubation. For human PBMC infections, cells were exposed to 10 ng of wild-type virus for 6 hours, washed, and split into two flasks: one with 10 μM PiB added on day 0 and 3, and one without PiB. Replication was monitored by p24 ELISA. For measuring infectivity of GFP-virus, 50,000 TZMb1, sMAGI, OMK, Vero, BSC-1 and CV-1 cells/well/mL were seeded onto 6-well plates respectively 24 hours prior to infection. Viruses were used to infect in duplicate wells, incubated for 48 hours, washed with PBS, trypsinized, fixed in 1% formaldehyde and subsequently analyzed by fluorescence-activated cell sorting (FACS) for percentage cells infected. […]
PBLs from human donors were challenged with HIV-1 in the presence (squares) or absence (circles) of 10 μM PiB. Replication was monitored by sampling virus concentration in supernatants via p24 ELISA. […]

HIV-1 [2] = test: HIV-1 viral production in 293T producer cells, p24 ELISA of supernatants; format: cell-based
From the text: Plasmids: Laboratory-adapted provirus NL4.3, and the CypA-independent NL4.3 CAi2 were kindly provided by Akio Adachi (Department of Virology, Institute of Health Biosciences, The University of Tokushima Graduate School, JAPAN). Mutant R9G89V was a gift from P. Gallay (TSR1) as were NL4.3-GFP and SIV-GFP (originally Dana Gabuzda, Dana Farber Cancer Institute). NL4.3 A92E was kindly provided by W. Phares (Genetics Unit, Novartis Forschungsinstitut, Vienna, Austria). R9Δgp160 plasmid clone was kindly provided by C. Aiken (Vanderbilt Medical Center). VSV-G (CMV-VSV-G) was kindly provided by D. Trono (École Polytechnique Fédérale de Lausanne). Both bMLV-GFP and nMLV-GFP in the form of pCIG3-N, pCIG3-B as well as pCNCG were kindly provided by J. Stoye (National Institute for Medical Research, UK). Isomerase mutant Pin1 (pFLAG-Pin1R68,69A) and WW-domain mutant Pin1 (pFLAG-Pin1 W34A) were constructed by site-directed mutagenesis. Pseudotyping experiments were performed using DNA constructs encoding the VSV-G generously provided by D. Trono. Human Pin1 was cloned into pFLAG (Sigma-Aldrich) making pFLAG-Pin1. Viruses were produced by transfection of 293T cells using either GeneJuice (Novagen) or calcium phosphate. […] All viruses were harvested 24-48 hours post-transfection and filtered (0.2-μM filter, Steriflip Millipore). […]

CCOC(=O)CN1C(=O)c2ccc3c4c(ccc(c24)C1=O)C(=O)N(CC(=O)OCC)C3=O [PiB, diethyl-1,3,6,8-tetrahydro-1,3,6,8-tetraoxobenzo[lmn][3,8]phenanthroline-2,7-diacetate]
replication kinetics of wild-type HIV-1 in human PBLs (HIV-1 [1]; 10 μM PiB, added again at day 3): enhanced | elevated replication kinetics versus untreated (HIV-1 [1]; human PBLs, 10 μM PiB, after six days, average of two donors): seven fold | increase in infectivity versus untreated (HIV-1 [1]; human PBLs, day 5): seven-fold | p24 in supernatant at peak replicative differential (HIV-1 [1]; human PBLs, day 5, untreated 0.2 μg/ml): 1.4 µg/mL | viral production (HIV-1 capsid in viral supernatants by p24 ELISA) (HIV-1 [2]): Neither inhibitor influences viral production; also recorded: do not alter viral production

From patent US8802439B2, “Methods for enhancing infectivity of retroviruses” (priority 2009, dated 2014)
